Results reported in US20240067693A1, “POLYPEPTIDES AND USES THEREOF” (MEDIMMUNE LIMITED, priority 2020, published 2024).
Numbered stars: 1 amine (or outer) side, 2 acyl side, 3 side chain; on linkers, the order of the positions; unused ones are H or OH. Bridge positions count the residues as written; N and C are the ends. Square brackets hold non-standard residues; d marks the D form. Side chains are listed from the residue outwards. Peptide text beside a SMILES is read from it. * marks the point of attachment. C18 diacid = O=C(O)CCCCCCCCCCCCCCCCC(=O)*; γGlu = O=C(O)[C@H](CCC(=O)[*:2])N[*:1]; Aib = CC(C)(N)C(=O)O

Tests used:
[1] = molecular target: T1, human calcitonin receptor (hCTR) (Homo sapiens, UniProt P30988); assay: cAMP production in 1321N1 cells with stable recombinant expression of human calcitonin receptor (hCTR); type: cell-based; details: cAMP, 1321N1 cells, assay buffer with 0.1% BSA; read-out: EC50 (pM) hCTR
T1 construct: expressed in transfected cells
T1 sequence (P30988 25-474): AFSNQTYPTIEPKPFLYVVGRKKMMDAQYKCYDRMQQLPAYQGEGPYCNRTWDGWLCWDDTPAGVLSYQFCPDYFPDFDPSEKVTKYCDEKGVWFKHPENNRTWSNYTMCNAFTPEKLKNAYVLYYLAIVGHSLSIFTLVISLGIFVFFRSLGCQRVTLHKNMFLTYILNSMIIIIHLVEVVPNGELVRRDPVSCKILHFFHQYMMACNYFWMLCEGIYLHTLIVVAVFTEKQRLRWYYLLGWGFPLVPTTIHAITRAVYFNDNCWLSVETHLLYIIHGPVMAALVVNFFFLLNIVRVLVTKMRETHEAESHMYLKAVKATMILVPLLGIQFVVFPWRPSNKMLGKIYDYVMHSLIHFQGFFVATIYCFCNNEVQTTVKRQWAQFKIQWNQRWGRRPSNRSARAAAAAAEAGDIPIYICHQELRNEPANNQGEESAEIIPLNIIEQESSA
How it was run: (§1)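 EC50 values come from 4-parameter logistic fits of HTRF cAMP signal, normalised to maximal calcitonin or amylin effect. Peptides were tested in duplicate for 30 min at RT in IBMX-containing (0.5 mM) BSA/HEPES buffer pH 7.4 on stable 1321N1 (human CTR, AMYR3) or HEK (rat CTR, AMYR3) lines.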

[2] = molecular target: T2, human amylin receptor (calcitonin receptor co-expressed with receptor activity modifying protein, RAMP3) (hAMYR3) (Homo sapiens, UniProt O60896+P30988); assay: cAMP production in 1321N1 cells with stable recombinant expression of human amylin receptor (hAMYR3); type: cell-based; details: for Ratio (selectivity hAMYR vs hCTR, ratio of EC50 values at the two receptors): EC50 hCTR / EC50 hAMYR3; for EC50: cAMP, 1321N1 cells, assay buffer with 0.1% BSA, read-out: EC50 (pM) hAMYR3
T2 construct: expressed in transfected cells
T2 sequence (P30988 25-474): T1 sequence (P30988 25-474)
T2 sequence (O60896 24-148 partner): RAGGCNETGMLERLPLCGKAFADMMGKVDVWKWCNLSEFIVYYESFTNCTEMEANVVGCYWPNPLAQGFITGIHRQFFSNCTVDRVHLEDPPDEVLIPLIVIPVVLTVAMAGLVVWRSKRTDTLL
How it was run: as §1

CC[C@H](C)[C@H](NC(=O)[C@@H]1CCCN1C(=O)CNC(=O)[C@H](Cc1ccccc1)NC(=O)[C@H](CC(N)=O)NC(=O)[C@H](CC(N)=O)NC(=O)[C@H](CO)NC(=O)[C@H](CO)NC(=O)[C@H](Cc1c[nH]cn1)NC(=O)C(C)(C)NC(=O)[C@H](CC(C)C)NC(=O)[C@H](Cc1ccccc1)NC(=O)[C@H](CC(N)=O)NC(=O)[C@H](C)NC(=O)[C@H](CC(C)C)NC(=O)[C@H](CCCNC(=N)N)NC(=O)[C@H](CCC(N)=O)NC(=O)[C@@H](NC(=O)[C@H](C)NC(=O)[C@@H]1CSSC[C@H](NC(=O)[C@H](CCCCN)NC(=O)[C@@H](N)CCCCNC(=O)CC[C@H](NC(=O)CCCCCCCCCCCCCCCCC(=O)O)C(=O)O)C(=O)N[C@@H](CC(N)=O)C(=O)N[C@@H]([C@@H](C)O)C(=O)N[C@@H](C)C(=O)N[C@@H]([C@@H](C)O)C(=O)N1)[C@@H](C)O)C(=O)N[C@@H](CC(C)C)C(=O)N1CCC[C@H]1C(=O)N1CCC[C@H]1C(=O)N[C@H](C(=O)N[C@@H](CC(N)=O)C(=O)N[C@H](C(=O)NCC(=O)N[C@@H](CO)C(=O)N[C@@H](CCCNC(=N)N)C(=O)N[C@H](C(=O)N[C@@H](Cc1ccc(O)cc1)C(N)=O)[C@@H](C)O)C(C)C)[C@@H](C)O [Peptide 141] (H-K([γGlu-C18 diacid])KCNTATCATQRLANFL[Aib]HSSNNFGPILPPTNVGSRTY-NH2; disulfide 3-8; N-terminus assumed) was tested, and the EC50 [1] was 3950 pM, the “Ratio (selectivity hAMYR vs hCTR, ratio of EC50 values at the two receptors)” value [2] was 9.5 and the EC50 [2] was 414 pM.
For CC[C@H](C)[C@H](NC(=O)[C@@H]1CCCN1C(=O)CNC(=O)[C@H](Cc1ccccc1)NC(=O)[C@H](CC(N)=O)NC(=O)[C@H](CC(N)=O)NC(=O)[C@H](CO)NC(=O)[C@H](CO)NC(=O)[C@H](Cc1c[nH]cn1)NC(=O)C(C)(C)NC(=O)[C@H](CC(C)C)NC(=O)[C@H](Cc1ccccc1)NC(=O)[C@H](CC(N)=O)NC(=O)[C@H](C)NC(=O)[C@H](CC(C)C)NC(=O)[C@H](CCCNC(=N)N)NC(=O)[C@H](CCC(N)=O)NC(=O)[C@@H](NC(=O)[C@H](C)NC(=O)[C@@H]1CSSC[C@H](NC(=O)[C@H](CCCCN)NC(=O)[C@@H](N)CCCCNC(=O)CC[C@H](NC(=O)CCCCCCCCCCCCCCCCC(=O)O)C(=O)O)C(=O)N[C@@H](CC(N)=O)C(=O)N[C@@H]([C@@H](C)O)C(=O)N[C@@H](C)C(=O)N[C@@H]([C@@H](C)O)C(=O)N1)[C@@H](C)O)C(=O)N[C@@H](CC(C)C)C(=O)N1CCC[C@H]1C(=O)N1CCC[C@H]1C(=O)N[C@H](C(=O)N[C@@H](CC(N)=O)C(=O)N[C@H](C(=O)NCC(=O)N[C@@H](CO)C(=O)N[C@@H](CCC(=O)O)C(=O)N[C@H](C(=O)N[C@@H](Cc1ccc(O)cc1)C(N)=O)[C@@H](C)O)C(C)C)[C@@H](C)O [Peptide 142] (H-K([γGlu-C18 diacid])KCNTATCATQRLANFL[Aib]HSSNNFGPILPPTNVGSETY-NH2; disulfide 3-8; N-terminus assumed), the EC50 [1] was 2270 pM, the “Ratio (selectivity hAMYR vs hCTR, ratio of EC50 values at the two receptors)” value [2] was 3.1 and the EC50 [2] was 730 pM.
In the case of CC[C@H](C)[C@H](NC(=O)[C@@H]1CCCN1C(=O)CNC(=O)[C@H](Cc1ccccc1)NC(=O)[C@H](CC(N)=O)NC(=O)[C@H](CC(N)=O)NC(=O)[C@H](CO)NC(=O)[C@H](CO)NC(=O)[C@H](Cc1c[nH]cn1)NC(=O)C(C)(C)NC(=O)[C@H](CC(C)C)NC(=O)[C@H](Cc1ccccc1)NC(=O)[C@H](CC(N)=O)NC(=O)[C@H](C)NC(=O)[C@H](CC(C)C)NC(=O)[C@H](CCCNC(=N)N)NC(=O)[C@H](CCC(N)=O)NC(=O)[C@@H](NC(=O)[C@H](C)NC(=O)[C@@H]1CSSC[C@H](NC(=O)[C@H](CCCCN)NC(=O)CNC(=O)CNC(=O)[C@@H](N)CCCCNC(=O)CC[C@H](NC(=O)CCCCCCCCCCCCCCCCC(=O)O)C(=O)O)C(=O)N[C@@H](CC(N)=O)C(=O)N[C@@H]([C@@H](C)O)C(=O)N[C@@H](C)C(=O)N[C@@H]([C@@H](C)O)C(=O)N1)[C@@H](C)O)C(=O)N[C@@H](CC(C)C)C(=O)N1CCC[C@H]1C(=O)N1CCC[C@H]1C(=O)N[C@H](C(=O)N[C@@H](CC(N)=O)C(=O)N[C@H](C(=O)NCC(=O)N[C@@H](CO)C(=O)N[C@@H](CC(N)=O)C(=O)N[C@H](C(=O)N[C@@H](Cc1ccc(O)cc1)C(N)=O)[C@@H](C)O)C(C)C)[C@@H](C)O [Peptide 143] (H-K([γGlu-C18 diacid])GGKCNTATCATQRLANFL[Aib]HSSNNFGPILPPTNVGSNTY-NH2; disulfide 5-10; N-terminus assumed), the EC50 [1] is reported as 6940 pM, the “Ratio (selectivity hAMYR vs hCTR, ratio of EC50 values at the two receptors)” value [2] is reported as 11.7 and the EC50 [2] is reported as 592 pM.
CC[C@H](C)[C@H](NC(=O)[C@@H]1CCCN1C(=O)CNC(=O)[C@H](Cc1ccccc1)NC(=O)[C@H](CC(N)=O)NC(=O)[C@H](CC(N)=O)NC(=O)[C@H](CO)NC(=O)[C@H](CO)NC(=O)[C@H](Cc1c[nH]cn1)NC(=O)C(C)(C)NC(=O)[C@H](CC(C)C)NC(=O)[C@H](Cc1ccccc1)NC(=O)[C@H](Cc1c[nH]cn1)NC(=O)[C@H](C)NC(=O)[C@H](CC(C)C)NC(=O)[C@H](CCCNC(=N)N)NC(=O)[C@H](CCC(N)=O)NC(=O)[C@@H](NC(=O)[C@H](C)NC(=O)[C@@H]1CSSC[C@H](NC(=O)[C@@H](N)CCCCNC(=O)CC[C@H](NC(=O)CCCCCCCCCCCCCCCCC(=O)O)C(=O)O)C(=O)N[C@@H](CC(N)=O)C(=O)N[C@@H]([C@@H](C)O)C(=O)N[C@@H](C)C(=O)N[C@@H]([C@@H](C)O)C(=O)N1)[C@@H](C)O)C(=O)N[C@@H](CC(C)C)C(=O)N1CCC[C@H]1C(=O)N1CCC[C@H]1C(=O)N[C@H](C(=O)N[C@@H](CC(N)=O)C(=O)N[C@H](C(=O)NCC(=O)N[C@@H](CO)C(=O)N[C@@H](CC(N)=O)C(=O)N[C@H](C(=O)N[C@@H](Cc1ccc(O)cc1)C(N)=O)[C@@H](C)O)C(C)C)[C@@H](C)O [Peptide 144] (H-K([γGlu-C18 diacid])CNTATCATQRLAHFL[Aib]HSSNNFGPILPPTNVGSNTY-NH2; disulfide 2-7; N-terminus assumed) was tested, and the EC50 [1] was 725 pM, the “Ratio (selectivity hAMYR vs hCTR, ratio of EC50 values at the two receptors)” value [2] was 5.3 and the EC50 [2] was 138 pM.
In the case of CC[C@H](C)[C@H](NC(=O)[C@@H]1CCCN1C(=O)CNC(=O)[C@H](Cc1ccccc1)NC(=O)[C@H](CC(N)=O)NC(=O)[C@H](CC(N)=O)NC(=O)[C@H](CO)NC(=O)[C@H](CO)NC(=O)[C@H](Cc1c[nH]cn1)NC(=O)C(C)(C)NC(=O)[C@H](CC(C)C)NC(=O)[C@H](Cc1ccccc1)NC(=O)[C@H](CC(N)=O)NC(=O)[C@H](C)NC(=O)[C@H](CC(C)C)NC(=O)[C@H](CCCNC(=N)N)NC(=O)[C@H](CCC(N)=O)NC(=O)[C@@H](NC(=O)[C@H](C)NC(=O)[C@@H]1CSSC[C@H](NC(=O)[C@H](CCCCN)NC(=O)[C@@H](N)CCCCNC(=O)CC[C@H](NC(=O)CCCCCCCCCCCCCCCCC(=O)O)C(=O)O)C(=O)N[C@@H](CC(N)=O)C(=O)N[C@@H]([C@@H](C)O)C(=O)N[C@@H](C)C(=O)N[C@@H]([C@@H](C)O)C(=O)N1)[C@@H](C)O)C(=O)N[C@@H](CC(C)C)C(=O)N1CCC[C@H]1C(=O)N1CCC[C@H]1C(=O)N[C@H](C(=O)N[C@@H](CC(N)=O)C(=O)N[C@H](C(=O)NCC(=O)N[C@@H](Cc1c[nH]cn1)C(=O)N[C@@H](CC(N)=O)C(=O)N[C@H](C(=O)N[C@@H](Cc1ccc(O)cc1)C(N)=O)[C@@H](C)O)C(C)C)[C@@H](C)O [Peptide 145] (H-K([γGlu-C18 diacid])KCNTATCATQRLANFL[Aib]HSSNNFGPILPPTNVGHNTY-NH2; disulfide 3-8; N-terminus assumed), the EC50 [1] is reported as 1880 pM, the “Ratio (selectivity hAMYR vs hCTR, ratio of EC50 values at the two receptors)” value [2] is reported as 4.5 and the EC50 [2] is reported as 417 pM.
CC[C@H](C)[C@H](NC(=O)[C@@H]1CCCN1C(=O)CNC(=O)[C@H](Cc1ccccc1)NC(=O)[C@H](CC(N)=O)NC(=O)[C@H](CC(N)=O)NC(=O)[C@H](CO)NC(=O)[C@H](CO)NC(=O)[C@H](Cc1c[nH]cn1)NC(=O)C(C)(C)NC(=O)[C@H](CC(C)C)NC(=O)[C@H](Cc1ccccc1)NC(=O)[C@H](CC(N)=O)NC(=O)[C@H](C)NC(=O)[C@H](CC(C)C)NC(=O)[C@H](CCCNC(=N)N)NC(=O)[C@H](CCC(N)=O)NC(=O)[C@@H](NC(=O)[C@H](C)NC(=O)[C@@H]1CSSC[C@H](NC(=O)[C@H](CCCCN)NC(=O)[C@@H](N)CCCCNC(=O)CC[C@H](NC(=O)CCCCCCCCCCCCCCCCC(=O)O)C(=O)O)C(=O)N[C@@H](CC(N)=O)C(=O)N[C@@H]([C@@H](C)O)C(=O)N[C@@H](C)C(=O)N[C@@H]([C@@H](C)O)C(=O)N1)[C@@H](C)O)C(=O)N[C@@H](CC(C)C)C(=O)N1CCC[C@H]1C(=O)N1CCC[C@H]1C(=O)N[C@H](C(=O)N[C@@H](Cc1c[nH]cn1)C(=O)N[C@H](C(=O)NCC(=O)N[C@@H](CO)C(=O)N[C@@H](CCC(=O)O)C(=O)N[C@H](C(=O)N[C@@H](Cc1ccc(O)cc1)C(N)=O)[C@@H](C)O)C(C)C)[C@@H](C)O [Peptide 146] (H-K([γGlu-C18 diacid])KCNTATCATQRLANFL[Aib]HSSNNFGPILPPTHVGSETY-NH2; disulfide 3-8; N-terminus assumed) was tested, and the EC50 [1] was 4870 pM, the “Ratio (selectivity hAMYR vs hCTR, ratio of EC50 values at the two receptors)” value [2] was 1.9 and the EC50 [2] was 2530 pM.
